Measurements: US9561228B2 (Celgene Avilomics Research, Inc., priority 2013, dated 2017)
pEC50: −log10 of the molar value.

What was measured:
[1] = system: ERK1/2 phosphorylation of p90RSK in HT29 cells; test: pRSK MSD Assay in HT29 cells; format: cell-based; conditions: Homo sapiens, HT-29, read-out: ERK1/ERK2 PRSK MSD HT29 EC50
Summary of the method: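 Serum-starved HT29 cells (0.1% FBS overnight) treated with test compound for 120 min at 37° C, then lysed with protease and phosphatase inhibitors. Phospho-p90RSK quantified by MSD sandwich immunoassay: RSK capture antibody, phospho-RSK detection antibody plus Sulfo-tagged antibody, electrochemiluminescence read.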

[2] = system: ERK1/2 phosphorylation of p90RSK in HCT116 cells; test: Detection of total and phospho-RSK by MSD ELISA (HCT116); format: cell-based; conditions: Homo sapiens, HCT-116, read-out: ERK1/ERK2 PRSK HCT116 EC50
Summary of the method: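 HCT116 cells treated with compound in RPMI/10% FBS for 2 h at 37° C, then lysed. Phospho-RSK (Ser380) and total RSK in lysates measured by MSD sandwich electrochemiluminescence ELISA as a readout of ERK1/2 activity.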

SMILES: C=CC(=O)Nc1cc(C)ccc1Nc1nc(NC2CCC(=O)NC2)ncc1C(F)(F)F (racemic) [Compound I-368, Rac-N-(5-methyl-2-((2-((6-oxopiperidin-3-yl)amino)-5-(trifluoromethyl)pyrimidin-4-yl)amino)phenyl)acrylamide]
- pEC50 [1]: 6.00 to 6.30
- pEC50 [2]: 6.30 to 7.00

SMILES: C=CC(=O)Nc1cc(C)ccc1Nc1nc(Nc2cc(C(C)=O)ccc2C)ncc1C(F)(F)F [Compound I-84, N-(2-((2-((5-Acetyl-2-methylphenyl)amino)-5-(trifluoromethyl)pyrimidin-4-yl)amino)-5-methylphenyl)acrylamide]
- pEC50 [1]: > 7.00

SMILES: C=CC(=O)Nc1ccccc1Nc1nc(Nc2cc(OC)ncc2C)ncc1C(F)(F)F [Compound I-85, N-(2-((2-((2-Methoxy-5-methylpyridin-4-yl)amino)-5-(trifluoromethyl)pyrimidin-4-yl)amino)phenyl)acrylamide]
- pEC50 [1]: > 7.00
- pEC50 [2]: > 7.00

SMILES: C=CC(=O)Nc1ccccc1Nc1nc(Nc2cc(OC)nc(N3CCN(C(C)=O)CC3)c2)ncc1C(F)(F)F [Compound I-92]
- pEC50 [2]: > 7.00

SMILES: C=CC(=O)Nc1cc(C)ccc1Nc1nc(Nc2cc(OC)nc(N3CCN(C(C)=O)CC3)c2)ncc1C(F)(F)F [Compound I-93, N-(2-((2-((2-(4-Acetylpiperazin-1-yl)-6-methoxypyridin-4-yl)amino)-5-(trifluoromethyl)pyrimidin-4-yl)amino)-5-methylphenyl)acrylamide]
- pEC50 [1]: > 7.00
- pEC50 [2]: > 7.00

SMILES: C=CC(=O)Nc1cc(C)ccc1Nc1nc(Nc2cc(NCCOC)nc(OC)c2)ncc1C(F)(F)F [Compound I-294, N-(2-((2-((2-methoxy-6-((2-methoxyethyl)amino)pyridin-4-yl)amino)-5-(trifluoromethyl)pyrimidin-4-yl)amino)-5-methylphenyl)acrylamide]
- pEC50 [1]: > 7.00
- pEC50 [2]: > 7.00

SMILES: C=CC(=O)Nc1cc(C)ccc1Nc1nc(Nc2cc(N[C@H]3CC[C@](C)(O)CC3)nc(OC)c2)ncc1C(F)(F)F [Compound I-327, N-(2-((2-((2-((trans-4-hydroxy-4-methylcyclohexyl)amino)-6-methoxypyridin-4-yl)amino)-5-(trifluoromethyl)pyrimidin-4-yl)amino)-5-methylphenyl)acrylamide]
- pEC50 [2]: > 7.00

SMILES: C=CC(=O)Nc1cc(C)ccc1Nc1nc(Nc2cc(P(C)(C)=O)ncc2C)ncc1C(F)(F)F [Compound I-343, N-(2-((2-((2-(dimethylphosphoryl)-5-methylpyridin-4-yl)amino)-5-(trifluoromethyl)pyrimidin-4-yl)amino)-5-methylphenyl)acrylamide]
- pEC50 [1]: 6.30 to 7.00
- pEC50 [2]: 6.30 to 7.00

SMILES: C=CC(=O)Nc1cc(C)ccc1Nc1nc(Nc2nc(OC)ncc2Cl)ncc1C(F)(F)F [Compound I-344, N-(2-((2-((5-chloro-2-methoxypyrimidin-4-yl)amino)-5-(trifluoromethyl)pyrimidin-4-yl)amino)-5-methylphenyl)acrylamide]
- pEC50 [2]: 6.30 to 7.00

SMILES: C#CC(=O)Nc1cc(C)ccc1Nc1nc(Nc2cc(OC)ncc2C)ncc1C(F)(F)F [Compound I-345, N-(2-((2-((2-methoxy-5-methylpyridin-4-yl)amino)-5-(trifluoromethyl)pyrimidin-4-yl)amino)-5-methylphenyl)propiolamide]
- pEC50 [1]: < 6.00
- pEC50 [2]: < 6.00

SMILES: C=CC(=O)Nc1cc(C)ccc1Nc1nc(Nc2nc(OC)ncc2C#N)ncc1C(F)(F)F [Compound I-346, N-(2-((2-((5-cyano-2-methoxypyrimidin-4-yl)amino)-5-(trifluoromethyl)pyrimidin-4-yl)amino)-5-methylphenyl)acrylamide]
- pEC50 [1]: 6.30 to 7.00
- pEC50 [2]: 6.30 to 7.00

SMILES: C=CC(=O)Nc1cc(C)ccc1Nc1nc(Nc2nc(OC)ncc2C)ncc1C(F)(F)F [Compound I-347, N-(2-((2-((2-methoxy-5-methylpyrimidin-4-yl)amino)-5-(trifluoromethyl)pyrimidin-4-yl)amino)-5-methylphenyl)acrylamide]
- pEC50 [1]: > 7.00
- pEC50 [2]: 6.30 to 7.00

SMILES: C=CC(=O)Nc1cc(C)ccc1Nc1nc(Nc2nc(OC)ncc2OC)ncc1C(F)(F)F [Compound I-349, N-(2-((2-((2,5-dimethoxypyrimidin-4-yl)amino)-5-(trifluoromethyl)pyrimidin-4-yl)amino)-5-methylphenyl)acrylamide]
- pEC50 [1]: 6.30 to 7.00
- pEC50 [2]: 6.30 to 7.00

SMILES: C=CC(=O)Nc1cc(C)ccc1Nc1nc(Nc2cnc(OC)cc2C)ncc1C(F)(F)F [Compound I-350, N-(2-((2-((6-methoxy-4-methylpyridin-3-yl)amino)-5-(trifluoromethyl)pyrimidin-4-yl)amino)-5-methylphenyl)acrylamide]
- pEC50 [1]: < 6.00
- pEC50 [2]: < 6.00

SMILES: C=CC(=O)Nc1cc(C)ccc1Nc1nc(Nc2cc(OC)ncc2Cl)ncc1C(F)(F)F [Compound I-351, N-(2-((2-((5-chloro-2-methoxypyridin-4-yl)amino)-5-(trifluoromethyl)pyrimidin-4-yl)amino)-5-methylphenyl)acrylamide]
- pEC50 [1]: 6.30 to 7.00
- pEC50 [2]: 6.00 to 6.30

SMILES: C=CC(=O)Nc1cc(C)ccc1Nc1nc(Nc2ncc(C(F)(F)F)c(OC)n2)ncc1C(F)(F)F [Compound I-354, N-(2-((2-((4-methoxy-5-(trifluoromethyl)pyrimidin-2-yl)amino)-5-(trifluoromethyl)pyrimidin-4-yl)amino)-5-methylphenyl)acrylamide]
- pEC50 [1]: 6.30 to 7.00
- pEC50 [2]: 6.30 to 7.00

SMILES: C=CC(=O)Nc1cc(C)ccc1Nc1nc(Nc2nc(OC)ncc2C(F)(F)F)ncc1C(F)(F)F [Compound I-355, N-(2-((2-((2-methoxy-5-(trifluoromethyl)pyrimidin-4-yl)amino)-5-(trifluoromethyl)pyrimidin-4-yl)amino)-5-methylphenyl)acrylamide]
- pEC50 [1]: 6.30 to 7.00
- pEC50 [2]: 6.30 to 7.00

SMILES: C=CC(=O)Nc1cc(C)ccc1Nc1nc(Nc2ncc(F)c(OC)n2)ncc1C(F)(F)F [Compound I-356, N-(2-((2-((5-fluoro-4-methoxypyrimidin-2-yl)amino)-5-(trifluoromethyl)pyrimidin-4-yl)amino)-5-methylphenyl)acrylamide]
- pEC50 [1]: 6.30 to 7.00
- pEC50 [2]: 6.00 to 6.30

SMILES: C=CC(=O)Nc1cc(C)ccc1Nc1nc(Nc2nc(OC)ncc2F)ncc1C(F)(F)F [Compound I-357, N-(2-((2-((5-fluoro-2-methoxypyrimidin-4-yl)amino)-5-(trifluoromethyl)pyrimidin-4-yl)amino)-5-methylphenyl)acrylamide]
- pEC50 [1]: 6.30 to 7.00
- pEC50 [2]: 6.30 to 7.00

SMILES: C=CC(=O)Nc1cc(C)ccc1Nc1nc(Nc2cc(OCC)ncc2C)ncc1C(F)(F)F [Compound I-358, N-(2-((2-((2-ethoxy-5-methylpyridin-4-yl)amino)-5-(trifluoromethyl)pyrimidin-4-yl)amino)-5-methylphenyl)acrylamide]
- pEC50 [1]: 6.30 to 7.00
- pEC50 [2]: 6.00 to 6.30

SMILES: C=CC(=O)Nc1cc(C)ccc1Nc1nc(Nc2cc(OCCOC)ncc2C)ncc1C(F)(F)F [Compound I-359, N-(2-((2-((2-(2-methoxyethoxy)-5-methylpyridin-4-yl)amino)-5-(trifluoromethyl)pyrimidin-4-yl)amino)-5-methylphenyl)acrylamide]
- pEC50 [1]: 6.30 to 7.00
- pEC50 [2]: 6.00 to 6.30

SMILES: C=CC(=O)Nc1cc(C)ccc1Nc1nc(Nc2nc(OC)ccc2Cl)ncc1C(F)(F)F [Compound I-360, N-(2-((2-((3-chloro-6-methoxypyridin-2-yl)amino)-5-(trifluoromethyl)pyrimidin-4-yl)amino)-5-methylphenyl)acrylamide]
- pEC50 [1]: 6.30 to 7.00
- pEC50 [2]: 6.00 to 6.30

SMILES: C=CC(=O)Nc1cc(C)ccc1Nc1nc(Nc2cc(OC)cnc2Cl)ncc1C(F)(F)F [Compound I-361, N-(2-((2-((2-chloro-5-methoxypyridin-3-yl)amino)-5-(trifluoromethyl)pyrimidin-4-yl)amino)-5-methylphenyl)acrylamide]
- pEC50 [1]: > 7.00
- pEC50 [2]: 6.30 to 7.00

SMILES: C=CC(=O)Nc1cc(C)ccc1Nc1nc(Nc2nc(O)ncc2C)ncc1C(F)(F)F [Compound I-364, N-(2-((2-((2-hydroxy-5-methylpyrimidin-4-yl)amino)-5-(trifluoromethyl)pyrimidin-4-yl)amino)-5-methylphenyl)acrylamide]
- pEC50 [1]: > 7.00
- pEC50 [2]: 6.30 to 7.00

SMILES: C=CC(=O)Nc1cc(C)c(F)cc1Nc1nc(Nc2cc(OC)ncc2C)ncc1C(F)(F)F [Compound I-366, N-(4-fluoro-2-((2-((2-methoxy-5-methylpyridin-4-yl)amino)-5-(trifluoromethyl)pyrimidin-4-yl)amino)-5-methylphenyl)acrylamide]
- pEC50 [1]: < 6.00
- pEC50 [2]: < 6.00

SMILES: C=CC(=O)Nc1c(Nc2nc(Nc3cc(OC)ncc3C)ncc2C(F)(F)F)ccc(C)c1F [Compound I-367, N-(2-fluoro-6-((2-((2-methoxy-5-methylpyridin-4-yl)amino)-5-(trifluoromethyl)pyrimidin-4-yl)amino)-3-methylphenyl)acrylamide]
- pEC50 [1]: 6.30 to 7.00
- pEC50 [2]: 6.00 to 6.30

SMILES: C=CC(=O)Nc1cc(C)ccc1Nc1nc(Nc2cc(OC(C)C)ncc2C)ncc1C(F)(F)F [Compound I-369, N-(2-((2-((2-isopropoxy-5-methylpyridin-4-yl)amino)-5-(trifluoromethyl)pyrimidin-4-yl)amino)-5-methylphenyl)acrylamide]
- pEC50 [1]: < 6.00
- pEC50 [2]: < 6.00

SMILES: C=CC(=O)Nc1cc(C)ccc1Nc1nc(Nc2c[nH]c(=O)cc2C)ncc1C(F)(F)F [Compound I-370, N-(5-methyl-2-((2-((4-methyl-6-oxo-1,6-dihydropyridin-3-yl)amino)-5-(trifluoromethyl)pyrimidin-4-yl)amino)phenyl)acrylamide]
- pEC50 [1]: 6.00 to 6.30
- pEC50 [2]: 6.00 to 6.30

SMILES: C=CC(=O)Nc1cc(C)ccc1Nc1nc(Nc2nc(OC)nc(OC)n2)ncc1C(F)(F)F [Compound I-371, N-(2-((2-((4,6-dimethoxy-1,3,5-triazin-2-yl)amino)-5-(trifluoromethyl)pyrimidin-4-yl)amino)-5-methylphenyl)acrylamide]
- pEC50 [1]: 6.30 to 7.00
- pEC50 [2]: < 6.00
